Assay [1] deals with T1, 3-hydroxy-3-methylglutaryl-coenzyme A reductase (Homo sapiens, UniProt P04035).
T1 sequence (P04035 whole entry): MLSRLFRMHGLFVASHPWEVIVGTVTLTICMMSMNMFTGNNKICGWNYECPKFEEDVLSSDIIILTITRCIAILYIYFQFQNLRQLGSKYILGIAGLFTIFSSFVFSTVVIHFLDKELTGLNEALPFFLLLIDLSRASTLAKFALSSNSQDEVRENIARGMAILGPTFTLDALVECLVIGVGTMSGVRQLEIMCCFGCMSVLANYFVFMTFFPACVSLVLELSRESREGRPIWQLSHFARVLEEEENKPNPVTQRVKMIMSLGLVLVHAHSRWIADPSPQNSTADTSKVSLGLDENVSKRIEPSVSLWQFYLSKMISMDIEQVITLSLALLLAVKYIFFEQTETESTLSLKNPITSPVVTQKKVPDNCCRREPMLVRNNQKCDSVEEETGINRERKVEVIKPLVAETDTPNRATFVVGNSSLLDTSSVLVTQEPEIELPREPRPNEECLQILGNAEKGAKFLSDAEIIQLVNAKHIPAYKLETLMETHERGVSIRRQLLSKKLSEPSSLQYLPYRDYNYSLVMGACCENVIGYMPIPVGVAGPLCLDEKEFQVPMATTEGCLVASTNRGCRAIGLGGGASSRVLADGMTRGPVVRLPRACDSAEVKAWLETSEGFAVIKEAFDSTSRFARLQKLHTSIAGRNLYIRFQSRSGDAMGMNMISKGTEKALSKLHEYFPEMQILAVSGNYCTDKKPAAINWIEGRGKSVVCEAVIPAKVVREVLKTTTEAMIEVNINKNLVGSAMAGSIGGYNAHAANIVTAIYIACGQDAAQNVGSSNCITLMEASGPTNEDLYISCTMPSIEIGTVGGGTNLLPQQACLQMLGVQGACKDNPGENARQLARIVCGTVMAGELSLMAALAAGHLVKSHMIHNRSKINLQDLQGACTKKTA
Details: species or system Escherichia coli.

Assay [2] concerns the target Mitogen-activated protein kinase 3 (Homo sapiens, UniProt P27361). The assay is described as follows: DRUGMATRIX: Protein Serine/Threonine Kinase, ERK1 enzyme inhibition (substrate: Myelin Basic Protein). The conditions noted are these: Not Active = under 50% inhibition at 10 µM. Details: species or system Escherichia coli.
Assay [3] deals with T2, 5-hydroxytryptamine receptor 2C (Homo sapiens, UniProt P28335).
T2 sequence (P28335 whole entry): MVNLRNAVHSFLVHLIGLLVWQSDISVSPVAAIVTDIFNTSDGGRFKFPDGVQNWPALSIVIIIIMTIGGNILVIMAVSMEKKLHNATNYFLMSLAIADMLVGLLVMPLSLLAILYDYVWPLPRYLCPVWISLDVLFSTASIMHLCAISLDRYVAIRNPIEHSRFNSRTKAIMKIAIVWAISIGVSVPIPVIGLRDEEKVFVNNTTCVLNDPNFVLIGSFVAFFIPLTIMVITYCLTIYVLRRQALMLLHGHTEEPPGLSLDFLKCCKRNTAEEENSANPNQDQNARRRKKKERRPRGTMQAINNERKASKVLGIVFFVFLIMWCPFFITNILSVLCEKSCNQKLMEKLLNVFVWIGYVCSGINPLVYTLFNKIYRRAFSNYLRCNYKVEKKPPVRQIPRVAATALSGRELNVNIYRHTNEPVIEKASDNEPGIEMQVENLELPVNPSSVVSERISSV
Briefly: DRUGMATRIX: Serotonin (5-Hydroxytryptamine) 5-HT2C radioligand binding (ligand: [3H] Mesulergine). The conditions noted are these: Not Active = under 50% inhibition at 10 µM. It counts as cell membranes, CHO-K1, Membrane.

Assay [4] deals with T3, Adenosine receptor A1 (Homo sapiens, UniProt P30542).
T3 sequence (P30542 whole entry): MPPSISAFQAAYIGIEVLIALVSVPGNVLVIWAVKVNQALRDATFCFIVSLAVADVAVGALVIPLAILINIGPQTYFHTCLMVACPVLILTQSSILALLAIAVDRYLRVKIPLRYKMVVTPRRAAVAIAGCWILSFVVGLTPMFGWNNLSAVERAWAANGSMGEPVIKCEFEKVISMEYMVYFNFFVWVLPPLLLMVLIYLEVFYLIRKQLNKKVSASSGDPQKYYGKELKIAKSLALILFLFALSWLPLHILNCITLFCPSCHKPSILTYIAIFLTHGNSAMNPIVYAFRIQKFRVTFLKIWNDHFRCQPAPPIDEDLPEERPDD
It counts as cell membranes, CHO, Membrane.

In assay [5] the target is cGMP-specific 3',5'-cyclic phosphodiesterase (Homo sapiens, UniProt O76074). Briefly: DRUGMATRIX: Phosphodiesterase PDE5 enzyme inhibition (substrate: [3H]cGMP + cGMP). In kind it is tissue-based. The conditions noted are these: platelet; Not Active = under 50% inhibition at 10 µM.
The target in assay [6] is T4, Substance-K receptor (Homo sapiens, UniProt P21452). Note: in other assays of this panel Not Active means under 50% inhibition at 10 µM.
T4 sequence (P21452 whole entry): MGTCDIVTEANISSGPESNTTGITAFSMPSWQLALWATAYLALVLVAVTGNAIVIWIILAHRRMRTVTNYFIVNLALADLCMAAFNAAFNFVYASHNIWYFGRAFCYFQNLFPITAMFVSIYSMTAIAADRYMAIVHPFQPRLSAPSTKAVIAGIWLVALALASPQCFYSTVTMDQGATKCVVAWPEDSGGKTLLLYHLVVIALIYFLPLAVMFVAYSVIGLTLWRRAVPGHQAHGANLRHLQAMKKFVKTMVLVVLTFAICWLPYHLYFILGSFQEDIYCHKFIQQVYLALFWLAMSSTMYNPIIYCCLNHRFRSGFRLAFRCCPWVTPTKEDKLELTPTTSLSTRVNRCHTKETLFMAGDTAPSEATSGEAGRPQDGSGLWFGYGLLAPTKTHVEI
It counts as cell membranes, CHO, Membrane.

Chain of Mitogen-activated protein kinase 3 (P27361 whole entry): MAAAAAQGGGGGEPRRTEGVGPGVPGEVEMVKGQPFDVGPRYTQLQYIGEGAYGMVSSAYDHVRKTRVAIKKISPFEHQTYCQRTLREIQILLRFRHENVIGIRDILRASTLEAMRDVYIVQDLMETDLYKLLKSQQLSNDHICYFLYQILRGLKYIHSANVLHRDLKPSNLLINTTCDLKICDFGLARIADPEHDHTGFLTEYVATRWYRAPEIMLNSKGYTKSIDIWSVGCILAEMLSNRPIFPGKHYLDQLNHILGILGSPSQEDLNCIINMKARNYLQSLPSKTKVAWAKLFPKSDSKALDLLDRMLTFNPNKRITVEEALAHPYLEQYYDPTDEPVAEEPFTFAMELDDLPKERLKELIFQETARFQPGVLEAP

`CO[C@H]1/C=C/O[C@@]2(C)Oc3c(C)c(O)c4c(O)c(c(/C=N/N5CCN(C)CC5)c(O)c4c3C2=O)NC(=O)/C(C)=C\C=C\[C@H](C)[C@H](O)[C@@H](C)[C@@H](O)[C@@H](C)[C@H](OC(C)=O)[C@@H]1C` [RIFAMPIN]: the IC50 result in assay [1], in assay [2], in assay [3] (cho-k1), in assay [4] (cho), in assay [5] and in assay [6] (cho) was “Not Active” each time.

Consider `O=NN(CCCl)C(=O)NC1CCCCC1` [LOMUSTINE], for which the IC50 result in assay [1], in assay [2], in assay [3] (cho-k1), in assay [4] (cho), in assay [5] and in assay [6] (cho) was “Not Active” in each case.

On to `CSc1ccc(/C=C2/C(C)=C(CC(=O)O)c3cc(F)ccc32)cc1` [SULINDAC SULFIDE], for which the IC50 entry in assay [1], in assay [2], in assay [3] (cho-k1), in assay [4] (cho), in assay [5] and in assay [6] (cho) was “Not Active” throughout.

For the molecule `Nc1nc2ccc(OC(F)(F)F)cc2s1` [RILUZOLE], the IC50 entry in assay [1], in assay [2], in assay [3] (cho-k1), in assay [4] (cho), in assay [5] and in assay [6] (cho) was “Not Active” each time.

In the case of SODIUM NITROPRUSSIDE, the IC50 entry in assay [1], in assay [2], in assay [3] (cho-k1), in assay [4] (cho), in assay [5] and in assay [6] (cho) was “Not Active” in each case. In addition, the Ki entry in assay [1], in assay [2], in assay [3] (cho-k1), in assay [4] (cho), in assay [5] and in assay [6] (cho) was “Not Active” each time.

On to `Cc1noc(NS(=O)(=O)c2ccc(N)cc2)c1C` [SULFISOXAZOLE], for which the IC50 result in assay [1], in assay [2], in assay [3] (cho-k1), in assay [4] (cho), in assay [5] and in assay [6] (cho) was “Not Active” each time.

On to `Cc1cccc(N(C)C(=S)Oc2ccc3ccccc3c2)c1` [TOLNAFTATE], for which the IC50 result in assay [1], in assay [2], in assay [3] (cho-k1), in assay [4] (cho), in assay [5] and in assay [6] (cho) was “Not Active” throughout.

Take `Cc1oncc1C(=O)Nc1ccc(C(F)(F)F)cc1` [LEFLUNOMIDE]: the IC50 result in assay [1], in assay [2], in assay [3] (cho-k1), in assay [4] (cho), in assay [5] and in assay [6] (cho) was “Not Active” throughout.

Turning to `CC[C@@H](CO)NC(=O)[C@@H]1C=C2c3cccc4[nH]cc(c34)C[C@H]2N(C)C1` [METHYLERGONOVINE], the IC50 result in assay [1] is “Not Active”; in assay [2], “Not Active”; in assay [3] (read-out: IC50) it was 0.013 µM; in assay [4] (cho) it was “Not Active”; in assay [5], “Not Active”; in assay [6] (cho) it was “Not Active”. Besides, the Ki in assay [3] (read-out: Ki) was 0.00656 µM.

Take `CCOC(=O)N1CCC(=C2c3ccc(Cl)cc3CCc3cccnc32)CC1` [LORATADINE]: the IC50 entry in assay [1], in assay [2], in assay [3] (cho-k1), in assay [4] (cho), in assay [5] and in assay [6] (cho) was “Not Active” each time.

Take `CC(C)(C)NC(=O)[C@@H]1C[C@@H]2CCCC[C@@H]2CN1C[C@@H](O)[C@H](Cc1ccccc1)NC(=O)[C@H](CC(N)=O)NC(=O)c1ccc2ccccc2n1`: the IC50 result is “Not Active” in assay [1]; “Not Active” in assay [2]; “Not Active” in assay [3] (cho-k1); “Not Active” in assay [4] (cho); “Not Active” in assay [5]; 6.21 µM in assay [6] (read-out: IC50). Moreover, the inhibition constant (Ki) in assay [6] (read-out: Ki) amounted to 2.07 µM.

On to `CC(=O)[C@@]1(O)CC[C@H]2[C@@H]3C[C@H](C)C4=CC(=O)CC[C@]4(C)[C@H]3CC[C@@]21C`, for which the IC50 entry in assay [1], in assay [2], in assay [3] (cho-k1), in assay [4] (cho), in assay [5] and in assay [6] (cho) was “Not Active” each time.

For the molecule `CC(C)N1CCN(c2ccc(OCC3COC(Cn4cncn4)(c4ccc(Cl)cc4Cl)O3)cc2)CC1` (stereo not drawn) [TERCONAZOLE], the IC50 entry in assay [1] is “Not Active”; in assay [2], “Not Active”; in assay [3] (read-out: IC50), 6.96 µM; in assay [4] (cho), “Not Active”; in assay [5], “Not Active”; in assay [6] (cho), “Not Active”. Besides, in assay [3] (read-out: Ki), the Ki came out at 3.65 µM.

Take `Nc1nc2nc[nH]c2c(=S)[nH]1` [THIOGUANINE]: the IC50 result in assay [1] was “Not Active”; in assay [2] (read-out: IC50), 5.52 µM; in assay [3] (cho-k1), “Not Active”; in assay [4] (cho) it was “Not Active”; in assay [5] it was “Not Active”; in assay [6] (cho) it was “Not Active”.

As for `COc1nc(C)nc(Cl)c1NC1=NCCN1` [MOXONIDINE], the IC50 entry in assay [1], in assay [2], in assay [3] (cho-k1), in assay [4] (cho), in assay [5] and in assay [6] (cho) was “Not Active” in each case.

Turning to `N[C@@H](Cc1cc(I)c(Oc2ccc(O)c(I)c2)c(I)c1)C(=O)O` [LIOTHYRONINE], the IC50 entry in assay [1] was “Not Active”; in assay [2], “Not Active”; in assay [3] (cho-k1) it was “Not Active”; in assay [4] (read-out: IC50), 0.411 µM; in assay [5], “Not Active”; in assay [6] (cho), “Not Active”. Moreover, the Ki in assay [4] (read-out: Ki) worked out at 0.24 µM.

As for `C[C@@H]1CN(c2c(F)c(N)c3c(=O)c(C(=O)O)cn(C4CC4)c3c2F)C[C@H](C)N1` [SPARFLOXACIN], the IC50 result in assay [1], in assay [2], in assay [3] (cho-k1), in assay [4] (cho), in assay [5] and in assay [6] (cho) was “Not Active” each time.

In the case of `N[C@@H](Cc1ccc(O)c(O)c1)C(=O)O` [LEVODOPA], the IC50 result in assay [1], in assay [2], in assay [3] (cho-k1), in assay [4] (cho), in assay [5] and in assay [6] (cho) was “Not Active” each time.

As usually defined, the IC50 is the concentration at which inhibition is half-maximal. The Ki is the equilibrium dissociation constant of an inhibitor or competing ligand from its target.

These data come from ChEMBL document CHEMBL1909046, “DrugMatrix in vitro pharmacology data”.
